Experiment [1] concerns the target T1, DNA gyrase of Escherichia coli (Escherichia coli, UniProt P0AES4+P0AES6).
T1 construct: purchased John Innes Enterprises #K0001
Briefly: DNA gyrase inhibition (supercoiling assay kit), Exp. Ex. 1-2. In kind it is biochemical. Particulars: E. coli DNA gyrase supercoiling, relaxed pBR322, 37° C., 30 minutes; read-out: Gyrase inhibitory activity IC50 (converted). An outline of the steps:
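Relaxed pBR322 DNA […] supercoiled by 1 U E. coli gyrase for 30 min at 37 °C in 35 mM Tris-HCl pH 7.5, 24 mM KCl, 4 mM MgCl2, 2 mM DTT, 1.8 mM spermidine, 1 mM ATP, 6.5% glycerol, 0.1 mg/ml BSA. Products resolved by gel electrophoresis; IC50 determined.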

For experiment [2], the target named is T2, Escherichia coli Topoisomerase IV (Escherichia coli, UniProt P0AFI2+P20083).
T2 construct: purchased John Innes Enterprises
T2 sequence (P20083 whole entry): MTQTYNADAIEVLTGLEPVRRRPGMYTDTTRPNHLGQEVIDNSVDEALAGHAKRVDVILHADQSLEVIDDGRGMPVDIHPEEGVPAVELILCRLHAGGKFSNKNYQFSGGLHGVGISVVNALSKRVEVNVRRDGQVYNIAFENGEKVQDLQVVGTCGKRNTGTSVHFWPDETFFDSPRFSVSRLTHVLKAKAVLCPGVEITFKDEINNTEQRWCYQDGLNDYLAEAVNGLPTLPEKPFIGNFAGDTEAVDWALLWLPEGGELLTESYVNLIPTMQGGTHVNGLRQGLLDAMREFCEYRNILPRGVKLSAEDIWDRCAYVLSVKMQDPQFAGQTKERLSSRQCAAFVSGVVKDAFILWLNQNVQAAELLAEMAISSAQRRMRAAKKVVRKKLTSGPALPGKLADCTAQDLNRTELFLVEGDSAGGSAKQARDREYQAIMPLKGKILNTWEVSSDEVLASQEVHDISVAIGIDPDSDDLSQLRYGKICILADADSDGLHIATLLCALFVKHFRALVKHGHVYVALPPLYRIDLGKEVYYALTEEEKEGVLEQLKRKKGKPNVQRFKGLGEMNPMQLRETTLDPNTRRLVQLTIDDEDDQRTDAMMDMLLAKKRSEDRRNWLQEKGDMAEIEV
T2 sequence (P0AFI2 whole entry): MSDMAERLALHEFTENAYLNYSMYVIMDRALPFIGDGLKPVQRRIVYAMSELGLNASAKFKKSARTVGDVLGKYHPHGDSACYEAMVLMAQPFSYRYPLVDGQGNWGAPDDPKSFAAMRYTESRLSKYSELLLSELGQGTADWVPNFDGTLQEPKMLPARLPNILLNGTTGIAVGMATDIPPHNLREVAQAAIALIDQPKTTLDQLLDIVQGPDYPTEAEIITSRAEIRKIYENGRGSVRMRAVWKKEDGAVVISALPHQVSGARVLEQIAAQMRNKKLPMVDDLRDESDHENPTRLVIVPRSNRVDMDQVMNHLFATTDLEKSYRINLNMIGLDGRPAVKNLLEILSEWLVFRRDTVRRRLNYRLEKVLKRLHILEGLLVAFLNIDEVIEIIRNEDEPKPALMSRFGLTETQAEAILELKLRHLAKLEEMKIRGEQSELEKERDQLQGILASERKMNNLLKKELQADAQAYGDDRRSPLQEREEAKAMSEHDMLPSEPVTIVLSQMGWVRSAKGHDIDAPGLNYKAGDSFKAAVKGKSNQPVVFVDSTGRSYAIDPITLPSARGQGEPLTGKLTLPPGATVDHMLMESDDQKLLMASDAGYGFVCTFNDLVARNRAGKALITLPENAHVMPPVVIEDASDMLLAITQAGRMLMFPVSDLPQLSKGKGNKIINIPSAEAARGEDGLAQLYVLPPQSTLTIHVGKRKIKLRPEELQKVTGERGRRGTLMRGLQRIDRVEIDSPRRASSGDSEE
The experiment can be described thus: Topoisomerase IV inhibition (decatenation kit), Exp. Ex. 2-3. In kind it is biochemical. To be noted: decatenation of kDNA, 37° C., 30 minutes; read-out: IC50 (E. coli topoisomerase IV inhibitions). In outline: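 Decatenation of 200 ng kinetoplast DNA by 1 unit enzyme, 30 min at 37 °C. S. aureus: 50 mM Tris-HCl pH 7.5, 350 mM potassium glutamate, 1.5 mM ATP; E. coli: 50 mM HEPES-KOH pH 7.6, 100 mM potassium glutamate, 1 mM ATP. Products resolved on 1.0% agarose in TAE.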

Another experiment deals with VISA Mu50. The experiment can be described thus: In vitro infectivity assay (MIC), broth dilution, Exp. Ex. 1-1. To be noted: Staphylococcus aureus; VISA Mu50; Mueller-Hinton broth, 35° C., 24 hours; read-out: MIC VISA Mu50. In kind it is cell-based, Staphylococcus aureus. In outline:
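Inoculate ~10^5 CUF/[…] into NaCl-supplemented (0.85%) Mueller-Hinton broth; incubate 35° C., 24 hours; record MIC. CLSI broth dilution method, n=3.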
(Dilution methods test growth across graded concentrations, often in twofold steps.)

The subject of experiment [3] is Pseodomonas aeruginosa PAOI. The experiment can be described thus: Antibacterial activity (MIC) against Gram-negative strains, microdilution. In kind it is cell-based. To be noted: MIC after 24 h, read-out: MIC (Gram-nagative) PAO1. An outline of the steps:
(§1)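 CLSI broth microdilution in Mueller-Hinton broth with 0.85% NaCl, inoculum about 10^5 […]. Incubated 35° C for 24 hours; MIC taken as the minimum inhibitory concentration, measured three times.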

For another experiment, the system named is Escherichia coli K-12. The experiment is described as above. In kind it is cell-based. To be noted: K12, MIC after 24 h, read-out: MIC (Gram-nagative) K-12. In outline:
as §1

For experiment [4], the system named is Vancomycin-resistant enterococci FN-1. The experiment can be described thus: In vitro infectivity assay (MIC), Exp. Ex. 2-1. In kind it is cell-based. To be noted: Enterococcus, VRE; Gram-positive; microdilution, MIC after 24 h; read-out: MIC VRE FN-1. In outline: (§2)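 Inoculate bacteria (about 10^5 CUF/[…]) into NaCl-supplemented (0.85%) Mueller-Hinton broth with compound dilutions, incubate 24 hours at 35° C, then record the minimum inhibitory concentration. Repeated three times.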

Experiment [5] concerns Vancomycin intermediate-resistant Staphylococcus aureus Mu50. The experiment can be described thus: In vitro infectivity assay (MIC), Exp. Ex. 2-1. In kind it is cell-based. Particulars: Staphylococcus aureus, VISA; Gram-positive; microdilution, MIC after 24 h; read-out: MIC VISA Mu50. In outline: as §2
The test system of experiment [6] is Vancomycin-resistant enterococci NCTC 12201. The experiment can be described thus: In vitro infectivity assay (MIC), Exp. Ex. 2-1. To be noted: Enterococcus, NCTC 12201 / VRE; Gram-positive; microdilution, MIC after 24 h; read-out: MIC VRE NCTC 12201. In kind it is cell-based. An outline of the steps: as §2
A further experiment has as its target T3, E. coli DNA gyrase (Escherichia coli, UniProt P0AES4+P0AES6).
T3 construct: purchased John Innes Enterprises #K0001
The experiment can be described thus: DNA gyrase inhibition (supercoiling kit), Exp. Ex. 2-2. In kind it is biochemical. In outline:
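IC50 derived from gel electrophoresis separating supercoiled from relaxed DNA. Reactions ran 30 minutes at 37° C with 1 U gyrase, […] relaxed pBR322, 1 mM ATP and 4 mM MgCl2 in Tris-HCl buffer (pH 7.5), then stopped with EDTA-containing solution.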

pIC50: −log10 of the molar value. In brackets after ≈: the same amount, converted by molar mass.

What is called IC50 is the midpoint of a concentration-inhibition curve. Broadly, the pIC50 is the IC50 on a negative log10 scale, so that one unit is a factor of ten. By MIC is commonly meant the lowest concentration that inhibits growth of the organism.

T1 sequence (P0AES4 whole entry, one chain of several): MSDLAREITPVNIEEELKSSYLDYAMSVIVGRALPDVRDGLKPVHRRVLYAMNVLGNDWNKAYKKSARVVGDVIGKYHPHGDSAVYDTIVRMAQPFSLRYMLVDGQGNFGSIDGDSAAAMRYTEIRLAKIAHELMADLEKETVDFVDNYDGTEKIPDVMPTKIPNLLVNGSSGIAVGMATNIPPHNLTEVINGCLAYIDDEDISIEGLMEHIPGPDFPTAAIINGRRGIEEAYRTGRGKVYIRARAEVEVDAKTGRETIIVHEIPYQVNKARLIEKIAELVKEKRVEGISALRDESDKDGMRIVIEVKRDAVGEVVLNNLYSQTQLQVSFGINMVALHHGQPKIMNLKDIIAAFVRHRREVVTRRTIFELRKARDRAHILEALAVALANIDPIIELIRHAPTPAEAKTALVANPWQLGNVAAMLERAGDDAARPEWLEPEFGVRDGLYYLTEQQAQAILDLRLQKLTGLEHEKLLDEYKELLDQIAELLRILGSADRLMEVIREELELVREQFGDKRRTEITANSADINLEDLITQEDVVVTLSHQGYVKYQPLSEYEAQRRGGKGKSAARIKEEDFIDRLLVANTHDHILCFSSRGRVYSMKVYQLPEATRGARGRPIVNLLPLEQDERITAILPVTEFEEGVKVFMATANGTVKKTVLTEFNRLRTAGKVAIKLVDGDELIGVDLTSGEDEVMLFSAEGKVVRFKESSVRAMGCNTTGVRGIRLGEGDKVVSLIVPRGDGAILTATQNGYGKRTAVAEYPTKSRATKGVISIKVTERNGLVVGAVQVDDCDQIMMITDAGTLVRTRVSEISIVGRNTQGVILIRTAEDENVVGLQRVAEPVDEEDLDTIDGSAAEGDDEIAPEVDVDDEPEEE
T3 sequence (P0AES4 whole entry, one chain of several): as above

As to `O=c1c(O)c(-c2ccc(O)c(O)c2)oc2cc(O)cc(O)c12` [Quercetin, quercetin, reference compound], the IC50 in experiment [1] is 2.61 µM. For the same molecule, the negative-log IC50 (pIC50) is 5.35 in experiment [2] and 6.85 on E. coli DNA gyrase. The MIC is more than 128 µg/mL in the experiment with VISA Mu50; more than 128 µg/mL in [3]; 64 µg/mL (≈ 212 µM) in the experiment on Escherichia coli K-12; more than 128 µg/mL in experiment [4]; more than 128 µg/mL in [5]; more than 128 µg/mL in [6].

Source of the values: patent US8916526B2, “Flavanone derivative” (National University Corporation Okayama University, priority 2009, dated 2014).
